Measured values reported in PMC11078216, “Discovery of potent and selective activity-based probes (ABPs) for the deubiquitinating enzyme USP30” (RSC Chemical Biology, 2024).

Legend:
UCHL1 = target: T1, UCHL1 (Homo sapiens, UniProt P09936); experiment: Cross-screening against unrelated DUB UCHL1; assay type: biochemical; settings: Table S1, ESI
T1 sequence (P09936 1-223): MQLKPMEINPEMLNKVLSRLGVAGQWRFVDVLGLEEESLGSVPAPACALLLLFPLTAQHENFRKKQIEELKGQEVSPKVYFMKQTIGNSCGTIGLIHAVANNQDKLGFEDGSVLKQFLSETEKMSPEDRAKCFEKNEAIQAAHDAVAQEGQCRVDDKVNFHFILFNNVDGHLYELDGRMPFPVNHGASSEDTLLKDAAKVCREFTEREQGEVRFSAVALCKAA

PARK7 = target: T2, PARK7 (Homo sapiens, UniProt Q99497); experiment: ABPP chemical proteomics (LC-MS/MS) in HEK293T cells; assay type: cell-based; settings: 30 nM, 10 min
T2 construct: endogenous in cells; host or cells: HEK293T
Procedure: (§1) To explore the selectivity of IMP-2587 and IMP-2586 across the whole proteome, we performed quantitative activity-based protein profiling (ABPP) in HEK293T cells following treatment with IMP-2587 or IMP-2586 (Fig. 3a). After ABP incubation, cells were lysed, and probe-labelled proteins were ligated to biotinylated capture reagents.[27] […] USP30 was outcompeted by corresponding parent inhibitors for each ABP (Fig. 5b and d and Tables S3 and S5, ESI ^†), confirming the high potency and rapid engagement of IMP-2587 and IMP-2586 in cells. […] DESI1 and DESI2 are small ubiquitin-related modifier (SUMO) proteases,[3,29–32] and IMP-2587 and IMP-2586 may offer a starting point for future development of DESI ABPs. […]
(§2) d) Live cell probe incubation, lysate click chemistry and precipitation 6-well HEK293T cells were incubated with media containing compounds ABP 2 and ABP 4 at indicated concentrations for 1 h at 37 °C. The cells were washed with PBS and lysed with lysis buffer (50 μL (1% (v/v) Triton X-100, 0.1% (w/v) sodium dodecyl sulfate (SDS), EDTA-free complete protease inhibitor cocktail (1×, Roche) in PBS on ice for 10 min. The lysates were scraped and transferred to corresponding Lo-Bind Eppendorfs. Each lysate was sonicated for 1 minute, and the samples centrifuges at 5,000 x g at 4 °C for 5 minutes to pellet insoluble cellular debris. The supernatant was collected, and protein concentration was determined using the DC Protein Assay (Bio-Rad) as per manufacturer’s instructions, and normalised to lowest concentrated sample (e.g. 1 mg/mL, using lysis buffer). The following “click mixture” was prepared separately, preparing 6 μL for every 100 μL of […]
(§3) Capture reagent (AzRB/AzT for ABP 2, YnT/YnB for ABP 4 10 mM in DMSO, 1 vol; final concentration […]
(§4) CuSO4 (50 mM in water, 2 vol; final concentration in reaction 1 mM)
(§5) TCEP (50 mM in water, 2 vol; final concentration in reaction 1 mM)
(§6) TBTA (10 mM in DMSO, 1 vol; final concentration in reaction 100 µM)
(§7) The click mixture was vortexed and incubated at room temperature for 2 min before 6 μL of the mixture was added to every 100 μL of lysate. The reaction mixtures were shaken at room temperature for 1 h before being quenched with EDTA (500 mM in H2O) to a final concentration of 10 mM.
(§8) Proteins were precipitated by adding H2O (1 vol), MeOH (2 vol) and CHCl3 (0.5 vol), vortexing briefly then centrifuging at 17,000 × g for 5 min. The top H2O/MeOH layer was discarded and the middle layer of protein pellet and lower CHCl3 layer retained. The suspension was washed with MeOH (300 μL), and sonicated to break up the pellet. The proteins were pelleted by centrifugation at 10,000–17000 × g for 5–10 min or until a compact pellet was formed. The protein pellet was washed once more with MeOH (1 mL). The pellet was resuspended by sonicating and completely dissolving in 1% (w/v) SDS in PBS (to 5 mg/mL protein) before being made up to 1 mg/mL protein with PBS.
(§9) The lysate samples (10-20 μg) were mixed with 4× Laemmli sample loading buffer (250 mM Tris -HCl pH 6.8, 30% (v/v) glycerol, 10% (w/v) SDS, 0.05% (w/v) bromophenol blue) supplemented with 20% v/v β-mercaptoethanol (BME) and boiled for 10 min at 95 °C. The resulting protein samples were separated according to the protocol in section 3.2.c. Gel were imaged on a Typhoon imager (GE Healthcare; λEx 532 nm, λEm 575 nm for TAMRA. For protein loading quantification, gels were stained with Coomassie blue staining solution overnight, rinsed with water and imaged on an ImageQuant™ LAS 4000 imager (GE Healthcare). f) Neutravidin biotin enrichment (Affinity pull-down)
(§10) Click chemistry and precipitation steps were carried out as described in section 3.2.d, on at least 400ug of protein per sample. The pellet was resuspended by sonicating and completely dissolving in 1% (w/v) SDS in HEPES 50 mM pH 8.0, before being made up to 1 mg/mL protein with HEPES 50 mM pH 8.0 to […]
(§11) achieve a final concentration of 0.2% SDS. 20uL of each samples was collected as TL (Total lysate) […]
(§12) samples. […]

PGAP1 = target: T3, PGAP1 (Homo sapiens, UniProt Q75T13); experiment: as above; assay type: cell-based
T3 construct: endogenous in cells; host or cells: HEK293T
Procedure: as §1, §2, §3, §4, §5, §6, §7, §8, §9, §10, §11, §12

PPAT = target: T4, PPAT (Homo sapiens, UniProt Q06203); experiment: as above; assay type: cell-based
T4 construct: endogenous in cells; host or cells: HEK293T
Procedure: as §1, §2, §3, §4, §5, §6, §7, §8, §9, §10, §11, §12

SRP68 = target: T5, SRP68 (Homo sapiens, UniProt Q9UHB9); experiment: as above; assay type: cell-based
T5 construct: endogenous in cells; host or cells: HEK293T
Procedure: as §1, §2, §3, §4, §5, §6, §7, §8, §9, §10, §11, §12

ABHD6 = target: T6, ABHD6 (Homo sapiens, UniProt Q9BV23); experiment: as above; assay type: cell-based
T6 construct: endogenous in cells; host or cells: HEK293T
Procedure: as §1, §2, §3, §4, §5, §6, §7, §8, §9, §10, §11, §12

ALDH1A1 = target: T7, ALDH1A1 (Homo sapiens, UniProt P00352); experiment: as above; assay type: cell-based
T7 construct: endogenous in cells; host or cells: HEK293T
Procedure: as §1, §2, §3, §4, §5, §6, §7, §8, §9, §10, §11, §12

ALDH3A2 = target: T8, ALDH3A2 (Homo sapiens, UniProt P51648); experiment: as above; assay type: cell-based
T8 construct: endogenous in cells; host or cells: HEK293T
Procedure: as §1, §2, §3, §4, §5, §6, §7, §8, §9, §10, §11, §12

ALDH9A1 = target: T9, ALDH9A1 (Homo sapiens, UniProt P49189); experiment: as above; assay type: cell-based
T9 construct: endogenous in cells; host or cells: HEK293T
Procedure: as §1, §2, §3, §4, §5, §6, §7, §8, §9, §10, §11, §12

FAAH = target: T10, FAAH (Homo sapiens, UniProt O00519); experiment: as above; assay type: cell-based
T10 construct: endogenous in cells; host or cells: HEK293T
Procedure: as §1, §2, §3, §4, §5, §6, §7, §8, §9, §10, §11, §12

FAAH2 = target: T11, FAAH2 (Homo sapiens, UniProt Q6GMR7); experiment: as above; assay type: cell-based
T11 construct: endogenous in cells; host or cells: HEK293T
Procedure: as §1, §2, §3, §4, §5, §6, §7, §8, §9, §10, §11, §12

MRPS2 = target: T12, MRPS2 (Homo sapiens, UniProt Q9Y399); experiment: as above; assay type: cell-based
T12 construct: endogenous in cells; host or cells: HEK293T
Procedure: as §1, §2, §3, §4, §5, §6, §7, §8, §9, §10, §11, §12

NIT1 = target: T13, NIT1 (Homo sapiens, UniProt Q86X76); experiment: as above; assay type: cell-based
T13 construct: endogenous in cells; host or cells: HEK293T
Procedure: as §1, §2, §3, §4, §5, §6, §7, §8, §9, §10, §11, §12

[1] = IMP-2586 labelling vs DMSO, 30 nM, 10 min, HEK293T (Table S4, Fig.5c)
[2] = IMP-2587 labelling vs DMSO, 30 nM, 10 min, HEK293T (Table S2, Fig.5a)
[3] = compound 1 out-competition with IMP-2587 labelling, HEK293T (Table S3, Fig.5b)
[4] = compound 3 out-competition with IMP-2586 labelling, HEK293T (Table S5, Fig.5d)

T13 sequence (Q86X76 14-327): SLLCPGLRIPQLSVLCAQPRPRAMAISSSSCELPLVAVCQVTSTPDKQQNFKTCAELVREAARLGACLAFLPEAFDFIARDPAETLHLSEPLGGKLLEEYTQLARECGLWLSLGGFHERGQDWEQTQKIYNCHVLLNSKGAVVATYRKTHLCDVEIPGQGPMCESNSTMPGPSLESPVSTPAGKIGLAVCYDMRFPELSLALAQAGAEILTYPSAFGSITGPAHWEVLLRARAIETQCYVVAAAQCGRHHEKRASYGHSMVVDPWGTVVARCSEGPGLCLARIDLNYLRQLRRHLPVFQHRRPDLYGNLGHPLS
T7 sequence (P00352 whole entry): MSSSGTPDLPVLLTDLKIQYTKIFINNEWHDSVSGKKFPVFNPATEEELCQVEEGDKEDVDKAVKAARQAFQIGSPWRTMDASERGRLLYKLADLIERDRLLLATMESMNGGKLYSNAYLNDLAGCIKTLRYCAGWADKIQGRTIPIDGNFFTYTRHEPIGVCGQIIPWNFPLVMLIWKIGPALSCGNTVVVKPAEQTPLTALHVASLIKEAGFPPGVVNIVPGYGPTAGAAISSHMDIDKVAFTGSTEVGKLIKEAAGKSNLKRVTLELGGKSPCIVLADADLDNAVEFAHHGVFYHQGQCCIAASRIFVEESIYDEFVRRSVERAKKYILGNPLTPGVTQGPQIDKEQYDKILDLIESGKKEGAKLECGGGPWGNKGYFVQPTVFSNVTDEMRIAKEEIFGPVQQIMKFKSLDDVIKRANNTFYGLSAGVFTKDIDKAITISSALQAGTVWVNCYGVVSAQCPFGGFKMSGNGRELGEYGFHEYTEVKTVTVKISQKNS
T11 sequence (Q6GMR7 whole entry): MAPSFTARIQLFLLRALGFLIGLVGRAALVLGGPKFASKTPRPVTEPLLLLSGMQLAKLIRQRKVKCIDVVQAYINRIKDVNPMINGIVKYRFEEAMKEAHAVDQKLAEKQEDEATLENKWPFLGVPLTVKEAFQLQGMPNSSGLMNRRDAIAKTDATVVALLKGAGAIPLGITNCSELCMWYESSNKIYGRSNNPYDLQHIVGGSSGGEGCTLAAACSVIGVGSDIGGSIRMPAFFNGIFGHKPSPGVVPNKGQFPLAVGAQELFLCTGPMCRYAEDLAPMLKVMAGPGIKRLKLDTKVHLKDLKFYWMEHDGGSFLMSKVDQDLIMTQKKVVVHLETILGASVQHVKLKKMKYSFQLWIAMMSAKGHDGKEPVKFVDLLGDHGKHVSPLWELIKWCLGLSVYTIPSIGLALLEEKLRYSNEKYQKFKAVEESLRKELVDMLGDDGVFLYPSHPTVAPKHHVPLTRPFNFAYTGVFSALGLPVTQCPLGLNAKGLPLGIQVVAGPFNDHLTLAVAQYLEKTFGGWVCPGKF
T4 sequence (Q06203 12-517): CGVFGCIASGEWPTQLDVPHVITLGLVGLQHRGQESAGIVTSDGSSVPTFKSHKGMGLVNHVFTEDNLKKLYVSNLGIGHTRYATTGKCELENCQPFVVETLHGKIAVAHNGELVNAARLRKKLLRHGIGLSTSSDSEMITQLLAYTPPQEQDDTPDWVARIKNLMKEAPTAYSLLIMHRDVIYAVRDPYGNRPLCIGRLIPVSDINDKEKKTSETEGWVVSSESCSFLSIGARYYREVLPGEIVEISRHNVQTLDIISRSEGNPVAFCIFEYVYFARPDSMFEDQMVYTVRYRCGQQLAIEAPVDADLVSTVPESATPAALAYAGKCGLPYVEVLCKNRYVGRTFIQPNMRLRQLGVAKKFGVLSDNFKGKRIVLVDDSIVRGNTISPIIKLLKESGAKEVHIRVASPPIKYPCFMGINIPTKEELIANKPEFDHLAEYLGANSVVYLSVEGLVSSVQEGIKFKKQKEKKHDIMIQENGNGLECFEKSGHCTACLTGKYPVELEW
T10 sequence (O00519 whole entry): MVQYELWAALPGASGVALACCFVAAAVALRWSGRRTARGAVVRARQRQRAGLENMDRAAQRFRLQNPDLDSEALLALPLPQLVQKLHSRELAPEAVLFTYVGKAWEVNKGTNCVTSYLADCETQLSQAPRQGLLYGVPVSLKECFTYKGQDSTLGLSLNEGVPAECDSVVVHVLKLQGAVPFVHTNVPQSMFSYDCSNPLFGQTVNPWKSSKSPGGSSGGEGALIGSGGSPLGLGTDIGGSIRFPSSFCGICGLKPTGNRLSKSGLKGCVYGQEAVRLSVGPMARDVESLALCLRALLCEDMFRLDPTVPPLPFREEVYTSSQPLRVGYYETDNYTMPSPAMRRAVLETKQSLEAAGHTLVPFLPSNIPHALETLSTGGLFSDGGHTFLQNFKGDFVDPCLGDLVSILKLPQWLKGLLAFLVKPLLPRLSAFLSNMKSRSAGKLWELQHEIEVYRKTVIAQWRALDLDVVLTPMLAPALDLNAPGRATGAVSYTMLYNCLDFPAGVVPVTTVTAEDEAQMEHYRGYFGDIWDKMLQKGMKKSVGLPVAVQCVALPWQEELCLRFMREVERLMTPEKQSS
T9 sequence (P49189 whole entry): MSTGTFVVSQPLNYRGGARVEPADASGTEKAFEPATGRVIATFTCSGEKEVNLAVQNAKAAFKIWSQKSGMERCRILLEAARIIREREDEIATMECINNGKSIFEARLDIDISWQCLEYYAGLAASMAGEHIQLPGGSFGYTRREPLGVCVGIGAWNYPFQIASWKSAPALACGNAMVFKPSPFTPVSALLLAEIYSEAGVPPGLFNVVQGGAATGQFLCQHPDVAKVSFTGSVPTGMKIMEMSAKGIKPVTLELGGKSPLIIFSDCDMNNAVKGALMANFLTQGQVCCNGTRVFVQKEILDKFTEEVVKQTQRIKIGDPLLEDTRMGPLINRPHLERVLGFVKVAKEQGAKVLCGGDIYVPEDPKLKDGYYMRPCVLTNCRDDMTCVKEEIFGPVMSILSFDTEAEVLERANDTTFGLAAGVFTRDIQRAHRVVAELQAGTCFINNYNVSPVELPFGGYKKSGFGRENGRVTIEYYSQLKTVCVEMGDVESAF
T8 sequence (P51648 whole entry): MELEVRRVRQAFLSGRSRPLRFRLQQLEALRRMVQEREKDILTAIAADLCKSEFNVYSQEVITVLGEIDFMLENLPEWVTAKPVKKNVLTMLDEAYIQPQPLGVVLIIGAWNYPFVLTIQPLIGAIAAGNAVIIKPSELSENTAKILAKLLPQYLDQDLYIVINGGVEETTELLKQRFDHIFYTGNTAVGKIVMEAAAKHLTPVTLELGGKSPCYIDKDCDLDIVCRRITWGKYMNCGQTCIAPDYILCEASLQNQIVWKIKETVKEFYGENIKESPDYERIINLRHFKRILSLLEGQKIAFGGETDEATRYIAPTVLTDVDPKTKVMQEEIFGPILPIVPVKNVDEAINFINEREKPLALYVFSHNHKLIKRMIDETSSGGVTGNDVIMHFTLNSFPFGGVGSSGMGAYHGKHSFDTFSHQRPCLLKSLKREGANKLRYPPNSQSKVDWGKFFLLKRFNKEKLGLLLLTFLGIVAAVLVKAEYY
T2 sequence (Q99497 whole entry): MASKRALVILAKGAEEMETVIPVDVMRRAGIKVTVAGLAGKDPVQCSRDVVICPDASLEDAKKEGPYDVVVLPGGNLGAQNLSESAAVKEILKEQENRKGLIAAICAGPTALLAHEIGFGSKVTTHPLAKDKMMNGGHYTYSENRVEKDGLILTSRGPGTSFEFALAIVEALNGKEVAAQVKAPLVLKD
T5 sequence (Q9UHB9 whole entry): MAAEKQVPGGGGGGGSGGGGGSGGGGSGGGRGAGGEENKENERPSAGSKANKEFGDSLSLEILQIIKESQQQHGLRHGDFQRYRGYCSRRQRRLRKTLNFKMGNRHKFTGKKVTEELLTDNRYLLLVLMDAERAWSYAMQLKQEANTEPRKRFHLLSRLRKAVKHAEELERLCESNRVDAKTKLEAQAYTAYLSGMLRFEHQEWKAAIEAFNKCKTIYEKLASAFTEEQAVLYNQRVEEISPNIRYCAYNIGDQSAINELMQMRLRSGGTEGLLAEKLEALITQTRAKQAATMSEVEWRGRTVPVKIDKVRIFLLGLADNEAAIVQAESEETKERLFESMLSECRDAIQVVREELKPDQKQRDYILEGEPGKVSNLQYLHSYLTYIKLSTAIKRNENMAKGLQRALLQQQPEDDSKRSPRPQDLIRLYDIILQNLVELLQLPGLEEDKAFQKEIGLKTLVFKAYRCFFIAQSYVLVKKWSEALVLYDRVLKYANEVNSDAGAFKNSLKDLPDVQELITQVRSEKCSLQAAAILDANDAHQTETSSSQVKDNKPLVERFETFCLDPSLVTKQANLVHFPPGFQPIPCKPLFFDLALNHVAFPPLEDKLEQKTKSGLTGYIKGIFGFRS
T6 sequence (Q9BV23 whole entry): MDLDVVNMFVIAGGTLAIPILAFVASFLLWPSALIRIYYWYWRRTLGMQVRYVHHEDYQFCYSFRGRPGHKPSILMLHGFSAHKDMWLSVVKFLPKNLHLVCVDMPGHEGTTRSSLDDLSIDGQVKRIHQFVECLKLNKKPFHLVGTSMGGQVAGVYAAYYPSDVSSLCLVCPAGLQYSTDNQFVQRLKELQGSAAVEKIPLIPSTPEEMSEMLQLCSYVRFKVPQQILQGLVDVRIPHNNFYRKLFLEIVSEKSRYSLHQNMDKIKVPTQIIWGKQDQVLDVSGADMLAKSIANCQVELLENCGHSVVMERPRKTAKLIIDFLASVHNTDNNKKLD

Compound: N#CN1CC[C@@H](NC(=O)c2cc(-c3ccccc3Oc3ccc(N=[N+]=[N-])cc3)n[nH]2)C1 [IMP-2586]
- activity against UCHL1 (cross-screening) (UCHL1): no activity
- Difference (log2 fold change of enrichment) (PARK7; IMP-2586 labelling vs DMSO, HEK293T (Table S4, Fig.5c)): 1.30
- Difference (log2 fold change of enrichment) (PGAP1; [1]): 2.66
- Difference (log2 fold change of enrichment) (PPAT; [1]): 0.83
- Difference (log2 fold change of enrichment) (SRP68; [1]): 0.45

Compound: C#Cc1cccc(-c2cc(NC(=O)CC3CCN(C#N)C3)on2)c1 (centres unmarked) [IMP-2587]
- activity against UCHL1 (cross-screening) (UCHL1): no activity
- Difference (log2 fold change of enrichment) (ABHD6; [2]): 2.06
- Difference (log2 fold change of enrichment) (ALDH1A1; [2]): 2.95
- Difference (log2 fold change of enrichment) (ALDH3A2; [2]): 2.95
- Difference (log2 fold change of enrichment) (ALDH9A1; [2]): 1.70
- Difference (log2 fold change of enrichment) (FAAH; [2]): 3.97
- Difference (log2 fold change of enrichment) (FAAH2; [2]): 4.10
- Difference (log2 fold change of enrichment) (MRPS2; [2]): 2.58
- Difference (log2 fold change of enrichment) (NIT1; [2]): 2.01
- Difference (log2 fold change of enrichment) (PARK7; IMP-2587 labelling vs DMSO, HEK293T (Table S2, Fig.5a)): 1.32

Compound: N#CN1CC[C@H](CC(=O)Nc2cc(-c3cccc(Cl)c3)no2)C1 [compound 1, reference compound]
- Difference (log2 fold change of enrichment) (ABHD6; [3]): -1.95
- Difference (log2 fold change of enrichment) (ALDH1A1; [3]): -2.59
- Difference (log2 fold change of enrichment) (ALDH3A2; [3]): -1.88
- Difference (log2 fold change of enrichment) (ALDH9A1; [3]): -1.60
- Difference (log2 fold change of enrichment) (FAAH; [3]): -3.46
- Difference (log2 fold change of enrichment) (FAAH2; [3]): -3.82
- Difference (log2 fold change of enrichment) (MRPS2; [3]): -2.58
- Difference (log2 fold change of enrichment) (NIT1; [3]): -1.86

Compound: N#CN1CC[C@@H](NC(=O)c2cc(-c3ccccc3Oc3ccccc3)n[nH]2)C1 [compound 3, reference compound]
- Difference (log2 fold change of enrichment) (PGAP1; [4]): -2.38
- Difference (log2 fold change of enrichment) (PPAT; [4]): -0.44
- Difference (log2 fold change of enrichment) (SRP68; [4]): -0.40
